One data set deals with esophagus. Particulars: oral administration, patients; cited from earlier work.
For the next data set, the system named is bone resorption. Particulars: early postmenopausal bone loss (Mortensen et al.); cited from earlier work.
A further data set concerns canine esophagus tissue. Description: Esophageal irritation potential, dog model (esophageal infusion, histopathology). The data set is classed as in vivo. Particulars: for Esophageal irritation potential: low dosages on consecutive days (Group 7, Group 8). How it is done: The esophageal irritation potential of the bisphosphonates is evaluated using a dog model.
The following solutions are prepared:
(1) simulated gastric juice (pH about 2), i.e. the control solution.
(5) simulated gastric juice (pH about 2) containing about 0.20 mg/mL of risedronate sodium on a risedronic acid active basis.
(6) simulated gastric juice (pH about 2) containing about 4.0 mg/mL of tiludronate disodium on a tiludronic acid active basis.
The simulated gastric juice is prepared by dissolving about 960 mg of pepsin (L-585,228000B003, Fisher Chemical) in about 147 mL of 0.90 (wt %) NaCl (aqueous), adding about 3 mL of 1.0 M HCl (aqueous), and adjusting the volume to about 300 mL with deionized water. The pH of the resulting solution is measured and if necessary is adjusted to about 2 using 1.0 M HCl (aqueous) or 1.0 M NaOH (aqueous).
The animals used in the experiments are anesthetized and administered about 50 mL of the appropriate solution over about 30 minutes by infusion into the esophagus using an infusion pump and a rubber catheter. The following treatment experiments are run:
Group 1: This control group contains four animals. Each animal is administered a dosage of about 50 mL of simulated gastric juice [solution (1)] on each of five consecutive days. […]
Group 2: This group contains four animals. […]
Group 3: This group contains five animals. […] The animals are sacrificed about 24 hours after the dose is administered.
Group 4: This group contains five animals. […] The animals are sacrificed about 7 days after the dose is administered.
Group 5: This group contains six animals. […] The animals are administered a total of four dosages. The animals are sacrificed about 7 days after the last dose is administered.
Group 6: This group contains six animals. […] The animals are administered a total of eight dosages. The animals are sacrificed about four days after the last dose is administered.
Group 7: This group contains eight animals. Each animal is administered a dosage of about 50 mL of simulated gastric juice containing about 0.20 mg/mL of risedronate [solution (5)] on each of five consecutive days. […]
Group 8: This group contains four animals. Each animal is administered a dosage of about 50 mL of simulated gastric juice containing about 4.0 mg/mL of tiludronate [solution (6)] on each of five consecutive days. […]
The esophagus from each sacrificed animal is removed and prepared for histopathology using standard techniques by embedding the tissue in paraffin, staining with hematoxylin and eosin. The sections are examined microscopically.

The next data set concerns bone mineralization. Particulars: doses used clinically; cited from earlier work.
Setting [1] is: Group 4: 0.80 mg/mL, 1X, sacrifice 7 days after dosing.

On to `NCCC(O)(P(=O)(O)O)P(=O)(O)O` [pamidronate, 3-amino-1-hydroxypropylidene-1,1-bisphosphonic acid], for which the “Adverse gastrointestinal (esophageal) effects associated with use” value with esophagus was “associated with esophageal ulcers”.

`O=P(O)(O)C(O)(Cc1cccnc1)P(=O)(O)O` [Risedronate, 1-hydroxy-2-(3-pyridinyl)-ethylidene-1,1-bisphosphonic acid]: the “Antiresorptive efficacy of cyclic dosing relative to continuous daily dosing” value in the data set with bone resorption is reported as “cyclic dosing is actually less effective than continuous daily dosing”. Further, the “Histo-pathology (esophagus)” value in the data set on canine esophagus tissue (Group 7 (n = 8): 0.20 mg/mL, about 50 mL in simulated gastric juice, 1X daily for 5 days, sacrifice immediately after last dosing, listed as risedronate) is “deep ulceration of the epithelial surface and marked submucosal inflammation and vacuolation”. For the same compound, in the data set with canine esophagus tissue (Group 7: 0.20 mg/mL, 1X daily for 5 days, sacrifice immediately after last dosing), the “Animals with deep ulceration of epithelial surface” value is on record as “(4 of 8 animals)”. Besides, the Esophageal irritation potential result in the data set with canine esophagus tissue is on record as “high”.

On to `NCCCC(O)(P(=O)(O)O)P(=O)(O)O` [Alendronate, 4-amino-1-hydroxybutylidene-1,1-bisphosphonic acid monosodium trihydrate], for which the “Histo-pathology (esophagus)” value in the data set on canine esophagus tissue (Group 2 (n = 4): 0.20 mg/mL, about 50 mL in simulated gastric juice pH about 2, 1X daily for 5 days, sacrifice immediately after last dosing, listed as alendronate, monosodium trihydrate) was “deep ulceration of the epithelial surface and marked submucosal inflammation and vacuolation”; in the data set with canine esophagus tissue (Group 3 (n = 5): 0.80 mg/mL, about 50 mL in simulated gastric juice, 1X, sacrifice 24 hours after dosing, listed as alendronate, monosodium trihydrate), “intact epithelial surface with very slight submucosal inflammation and vacuolation”; with canine esophagus tissue (Group 3 (n = 5): 0.80 mg/mL, about 50 mL in simulated gastric juice, 1X, sacrifice 24 hours after dosing, monosodium trihydrate), “Intact epithelial”; with canine esophagus tissue (Group 4 (n = 5): 0.80 mg/mL, about 50 mL in simulated gastric juice, 1X, sacrifice 7 days after dosing, listed as alendronate, monosodium trihydrate), “intact epithelium with either minimal inflammation (two of the five animals) or no inflammation (three of the five animals) and no vacuolation”; in the data set with canine esophagus tissue (Group 5 (n = 6): 0.80 mg/mL, about 50 mL in simulated gastric juice, 1X weekly for a total of 4 doses, sacrifice 7 days after last dosing, listed as alendronate, monosodium trihydrate), “normal with an intact epithelium and absence of inflammatory cells in the submucosa”; in the data set with canine esophagus tissue (Group 5 (n = 6): 0.80 mg/mL, about 50 mL in simulated gastric juice, 1X weekly for a total of 4 doses, sacrifice 7 days after last dosing, monosodium trihydrate), “Intact epithelium with”. In the data set with canine esophagus tissue (Group 6 (n = 6): 0.40 mg/mL, about 50 mL in simulated gastric juice, 2X weekly for 4 weeks, sacrifice immediately after last dosing (table; text: about four days after), listed as alendronate, monosodium trihydrate), the “Histo-pathology (esophagus)” value is “deep ulceration of the epithelial surface and marked submucosal inflammation and vacuolation”. For the same compound, the “Animals with minimal inflammation” value with canine esophagus tissue (setting [1]) is on record as “inflammation (2 of 5”. In the data set with canine esophagus tissue (setting [1]), the “Animals with no inflammation” value is recorded as “inflammation (3 of 5”. The “Adverse gastrointestinal (esophageal) effects associated with use” value in the data set on esophagus is “associated with esophagitis and/or esophageal ulcers”.

With `O=P(O)(O)C(Sc1ccc(Cl)cc1)P(=O)(O)O` [Tiludronate, (4-chlorophenyl)thiomethane-1,1-disphosphonic acid], the “Histo-pathology (esophagus)” value in the data set with canine esophagus tissue (Group 8 (n = 4): 4.0 mg/mL, about 50 mL in simulated gastric juice, 1X daily for 5 days, sacrifice 24 hours after last dosing (table; text: immediately)) is “Slight submucosal”; in the data set on canine esophagus tissue (Group 8 (n = 4): 4.0 mg/mL, about 50 mL in simulated gastric juice, 1X daily for 5 days, sacrifice 24 hours after last dosing (table; text: immediately), listed as tiludronate) it was “slight ulceration of the epithelial surface and slight submucosal inflammation and vacuolation”. In addition, the “Animals with slight submucosal inflammation and vacuolation” value in the data set with canine esophagus tissue (Group 8: 4.0 mg/mL, 1X daily for 5 days) was “vacuolation (3 of 4”. Also, the Esophageal irritation potential entry in the data set on canine esophagus tissue was “high”.

In the case of `CC(O)(P(=O)(O)O)P(=O)(O)O` [etidronate, 1-hydroxyethane-1,1-diphosphonic acid], the “Effect on bone mineralization” value in the data set with bone mineralization is “impairs mineralization at doses used clinically”.

These data come from patent US6465443B2, “Method for inhibiting bone resorption” (Merck & Co., Inc., priority 1997, dated 2002).
